From patent US5352667A, “Non-peptidic surrogates of the Arg-Gly-Asp sequence and pharmaceutical compositions comprising them” (priority 1991, dated 1994)

Columns and labels:
[1] = test system: CD4^+ T cell adhesion to FN; test: Inhibition of activated CD4+ T cell adhesion to FN; assay type: cell-based, human
Method: To examine the adhesive properties of the T cells, 1 μg/50 μl/well of either fibronectin (FN) (Sigma), the 120 kD cell attachment fragment of FN (Telios Pharm. Inc. San Diego, CA), or laminin (LN) (Sigma), were added to 96-flat bottom microtiter-wells for 12 h. Unbound proteins were then washed away and remaining binding sites were blocked with 0.1% bovine serum albumin (BSA) added to the wells for 2 h and washed. CD4+T cells were purified from peripheral blood mononuclear leukocytes obtained from healthy human donors. The mononuclear cells were isolated using a Ficoll gradient, washed and incubated in RPMI supplemented with 10% fetal calf serum (FCS) and antibiotics in petri dishes at 37° C. humidified CO2 incubator. After 2 h, the non-adherent cells were isolated and applied on nylon-wool columns (1.5 h). CD4^+ T cells were then negatively selected by exposure of the cells to a cocktail of anti-CD8, CD19, and CD14 monoclonal antibodies (mAb) conjugated to magnetic-beads (Advanced Magnetics, MA). Unbound cells were recovered and their phenotype was examined. Purity of the CD4^+ T cells was always greater than 92% as determined by FACScan.
The purified CD4^+ T cells were radioactively labeled with ^51 [Cr](New England Nuclear) in RPMI +20% FCS for 2 h and washed. The cells were counted and seeded (0.2×10^5 cells) on the precoated microtiter wells in the presence or the absence of the various inhibitors. Coating was made either with FN, the 120 kD cell-attachment fragment of FN or with control adhesive protein laminin (LN). The inhibitors were various surrogates according to the invention, other test molecules or mAb. After 30 min incubation (in […] CO2 -- humidified incubator) the T cells were activated by 10 ng/ml phorbol myristate acetate (PMA) and the percent of T cells attached to the protein substrates was measured. Unbound cells were washed away after 20-30 min, the bound cells were lysed and their radioactivity was measured using radioactive counter. The amount of the radioactivity of the cell lysates represent the matrix-adherent cells and percent binding was calculated in comparison to the total radioactivity added to the wells. Activated T cell adhesion to control wells or to wells coated with BSA was always 2-5%; the level of adhesion of the non-activated T cells was always below 5%. Where indicated, 1/200 diluted mAb anti-CD29 (anti-β1 mAb Serotec, GB), or 1/400 diluted anti-VLA5 (the β1α5 FN-integrin receptor) mAb (Telios Pharm. Inc. San Diego), or 0.2 mM of RGD, GRGDSPK or GRGESP peptides (Sigma) were used. […] The results shown in Tables 1A, 1B and 1C represent data obtained from several experiments that produced essentially similar results.
In a second series of experiments, FN was used in the adhesion assay carried out with the RGD surrogates NS-8, NS-11 and NS-15 in comparison to RGDS peptide.
In a third series of experiments, FN was used in the adhesion assay with the surrogates SF-6,5 and NS-11 and compared to the peptide GRGDSP.

[2] = test system: B16-melanoma cells adhesion to FN; test: Inhibition of B16-melanoma cell adhesion to FN; assay type: cell-based, murine

Compound: N=C(N)NCCCCCC(=O)NCCCCC(=O)O [SF-6,5, 6-aza-7-oxo-12-quanidino-dodecanoic acid]
- % Adhesion of activated CD4^+ T cell to FN: (% inhibition) ([1]; Conc. 25 μg. ml): 10%
- % Adhesion of activated CD4^+ T cell to FN: (% inhibition) ([1]; Conc. 50 μg. ml): 25%
- % Adhesion of activated CD4^+ T cell to FN: (% inhibition) ([1]; Conc. 100 μg. ml): 38%
- % Adhesion of activated CD4^+ T cell to FN: (% inhibition) ([1]; Conc. 200 μg. ml): 55%
- % Adhesion of activated tumor cells to FN: (% inhibition) ([2]; Conc. 25 μg. ml): 10%
- % Adhesion of activated tumor cells to FN: (% inhibition) ([2]; Conc. 50 μg. ml): 20%
- % Adhesion of activated tumor cells to FN: (% inhibition) ([2]; Conc. 100 μg. ml): 30%
- % Adhesion of activated tumor cells to FN: (% inhibition) ([2]; Conc. 200 μg. ml): 45%
